# Source: patent US10722520B2, “Heterocyclic compounds and their use in preventing or treating bacterial infections” (MUTABILIS, priority 2016, dated 2020)
# Read-outs that look alike come from different tables or passages of the source.
# How the values were obtained:
# [1] = target: T1, AmpC (PAE) (Pseudomonas aeruginosa, UniProt P24735); details: read-out: IC50 β-lactamase AmpC (PAE); class (C); nitrocefin 200 μM, 30-min pre-incubation, enzyme 0.4 nM
# [2] = test system: E. cloacae P99; experiment: MIC of ceftazidime (CAZ) at fixed concentration of compound (synergy), broth microdilution; format: cell-based; details: strain P99; MIC of CAZ, compound fixed at 4 μg/mL
# Experimental: (§1) Log phase bacterial suspensions were adjusted to a final density of 5×10^5 cfu/mL in cation-adjusted Mueller-Hinton broth (Becton-Dickinson) and added to each well (98 μL). Microplates were incubated for 16-20 h at 35° C. in ambient air. The MIC of the compounds was defined as the lowest concentration of said compounds that prevented bacterial growth as read by visual inspection.
# [3] = test system: K. pneumoniae BAA-1898; experiment: as above; format: cell-based; details: strain BAA-1898; MIC of CAZ, compound fixed at 4 μg/mL
# Experimental: as §1
# [4] = test system: P. aeruginosa CIP107051; experiment: as above; format: cell-based; details: strain CIP107051; MIC of CAZ, compound fixed at 4 μg/mL
# Experimental: as §1
# [5] = test system: E. coli 190317; experiment: as above; format: cell-based; details: strain 190317; MIC of CAZ, compound fixed at 4 μg/mL
# Experimental: as §1
# [6] = test system: K. pneumoniae 6299; experiment: as above; format: cell-based; details: strain 6299; MIC of CAZ, compound fixed at 4 μg/mL
# Experimental: as §1
# [7] = test system: E. cloacae P99; experiment: MIC of compound alone, broth microdilution; format: cell-based; details: strain P99, compound alone
# In short: (§2)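 Visual end point: lowest concentration that blocked growth. Conditions: cation-adjusted Mueller-Hinton broth, 5×10^5 cfu/mL final inoculum of log-phase bacteria, 16-20 h, 35° C, ambient atmosphere.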
# [8] = test system: K. pneumoniae BAA-1898; experiment: MIC of compound alone, broth microdilution; format: cell-based; details: strain BAA-1898, compound alone
# In short: as §2
# [9] = test system: P. aeruginosa CIP107051; experiment: MIC of compound alone, broth microdilution; format: cell-based; details: strain CIP107051, compound alone
# In short: as §2
# [10] = test system: E. coli 190317; experiment: MIC of compound alone, broth microdilution; format: cell-based; details: strain 190317, compound alone
# In short: as §2
# [11] = test system: K. pneumoniae 6299; experiment: MIC of compound alone, broth microdilution; format: cell-based; details: strain 6299, compound alone
# In short: as §2
# [12] = target: T2, OXA-15 (Pseudomonas aeruginosa, UniProt Q51574); details: read-out: IC50 β-lactamase OXA-15; class (D); nitrocefin 200 μM, 30-min pre-incubation, enzyme 0.4 nM
# [13] = target: CTX-M-15 (Escherichia coli, UniProt Q9EXV5)
# [14] = target: T3, AmpC (P99) (Enterobacter cloacae, UniProt P05364); details: read-out: IC50 β-lactamase AmpC (P99); class (C); nitrocefin 200 μM, 30-min pre-incubation, enzyme 0.2 nM
# [15] = target: TEM-1 (Escherichia coli, UniProt P62593)
# [16] = target: OXA-48 (Klebsiella pneumoniae, UniProt Q6XEC0)
# [17] = target: OXA-11 (Pseudomonas aeruginosa, UniProt Q06778)
# [18] = target: CMY-37 (Citrobacter freundii, UniProt P05193); details: read-out: IC50 β-lactamase CMY-37
# [19] = target: SHV-1 (Klebsiella pneumoniae, UniProt P0AD64)
# [20] = target: KPC-2 (Klebsiella pneumoniae, UniProt Q9F663)
# [21] = target: OXA-1 (Escherichia coli, UniProt P13661)
# [22] = target: T2, OXA-15; experiment: biochemical
# [23] = target: T3, AmpC (P99); experiment: biochemical
# [24] = target: T1, AmpC (PAE); experiment: biochemical
# [25] = read-out: IC50 β-lactamase CTX-M-15, class (A), nitrocefin 200 μM, 30-min pre-incubation, enzyme 0.4 nM
# [26] = read-out: IC50 β-lactamase TEM-1, class (A), nitrocefin 200 μM, 30-min pre-incubation, enzyme 0.1 nM
# [27] = read-out: IC50 β-lactamase OXA-48, class (D), nitrocefin 200 μM, 30-min pre-incubation, enzyme 0.3 nM
# [28] = read-out: IC50 β-lactamase OXA-11, class (D), nitrocefin 200 μM, 30-min pre-incubation, enzyme 1.2 nM
# [29] = class (C), nitrocefin 200 μM, 30-min pre-incubation, enzyme 0.2 nM
# [30] = read-out: IC50 β-lactamase SHV-1, class (A), nitrocefin 200 μM, 30-min pre-incubation, enzyme 0.075 nM
# [31] = read-out: IC50 β-lactamase KPC-2, class (A), nitrocefin 200 μM, 30-min pre-incubation, enzyme 1 nM
# [32] = read-out: IC50 β-lactamase OXA-1, class (D), nitrocefin 200 μM, 30-min pre-incubation, enzyme 0.2 nM
SMILES,IC50 [1] [µM],MIC combination of CAZ and compounds of the invention at 4 μg/mL [2] [µg/mL],MIC combination of CAZ and compounds of the invention at 4 μg/mL [3] [µg/mL],MIC combination of CAZ and compounds of the invention at 4 μg/mL [4] [µg/mL],MIC combination of CAZ and compounds of the invention at 4 μg/mL [5] [µg/mL],MIC combination of CAZ and compounds of the invention at 4 μg/mL [6] [µg/mL],MIC compounds of the invention alone [7] [µg/mL],MIC compounds of the invention alone [8] [µg/mL],MIC compounds of the invention alone [9] [µg/mL],MIC compounds of the invention alone [10] [µg/mL],MIC compounds of the invention alone [11] [µg/mL],IC50 [12] [µM],"IC50 [13, 25] [µM]",IC50 [14] [µM],"IC50 [15, 26] [µM]","IC50 [16, 27] [µM]","IC50 [17, 28] [µM]","IC50 [18, 29] [µM]","IC50 [19, 30] [µM]","IC50 [20, 31] [µM]",further results
"O=C1N2CC(n3cc(S(=O)(=O)NCCO)cn3)=CC(C2)N1OS(=O)(=O)[O-].[Na+] (stereo not shown) [Example 74, sodium [3-[4-(2-hydroxyethylsulfamoyl)pyrazol-1-yl]-7-oxo-1,6-diazabicyclo[3.2.1]oct-3-en-6-yl]sulfate]",0.11,0.5,0.25,8,≤0.25,≤0.25,16,16,>32,8,16,0.048,0.0011,0.0095,0.00034,0.0029,0.02,0.025,0.0022,0.003,"IC50 [21, 32]: 0.022 µM"
"Cc1cc(C(N)=O)nn1C1=CC2CN(C1)C(=O)N2OS(=O)(=O)[O-].[Na+] (stereo not shown) [Example 23, sodium (7-oxo-3-(3-carboxamide-5-methyl-pyrazol-1-yl)-1,6-diazabicyclo[3.2.1]oct-3-en-6-yl) sulfate]",0.22,8,4,16,0.5,4,>32,>32,>32,>32,>32,0.76,0.001,0.038,0.00019,0.11,1.1,0.054,0.00036,0.0057,"IC50 [21, 32]: 1.5 µM"
"O=C(Nc1ccn(C2=CC3CN(C2)C(=O)N3OS(=O)(=O)[O-])n1)c1nccs1.[Na+] (stereo not shown) [Example 34, sodium {7-oxo-3-[3-(thiazole-2-carbonylamino)pyrazol-1-yl]-1,6-diazabicyclo[3.2.1]oct-3-en-6-yl}sulfate]",–,–,–,–,–,–,–,–,–,–,–,–,–,–,–,–,–,–,–,–,"MIC ([7]; Enterobacter cloacae, read-out: MIC compounds of the invention alone): > 32 µg/mL; MIC ([8]; Klebsiella pneumoniae, BAA1898, read-out: MIC compounds of the invention alone): > 32 µg/mL; MIC ([9]; Pseudomonas aeruginosa, read-out: MIC compounds of the invention alone): > 32 µg/mL; MIC ([10]; Escherichia coli, read-out: MIC compounds of the invention alone): > 32 µg/mL; MIC ([11]; Klebsiella pneumoniae, read-out: MIC compounds of the invention alone): > 32 µg/mL; IC50 [22]: 0.034 µM; IC50 [13]: 0.00092 µM; IC50 [15]: 0.001 µM; IC50 [16]: 0.0094 µM; IC50 [17]: 0.013 µM; IC50 [18]: 0.0062 µM; IC50 [19]: 0.0031 µM; IC50 [20]: 0.0085 µM; IC50 [23]: 0.01 µM; IC50 [21]: 0.13 µM; IC50 [24]: 0.056 µM"
